According to patent US20250339443A1, “METHOD FOR TREATING OR PREVENTING CALCIUM RELEASE-ACTIVATED CALCIUM CHANNEL OR DISCOIDIN DOMAIN RECEPTOR 2 RELATED DISORDERS OR CONDITIONS” (LumiSTAR Biotechnology, Inc., priority 2023, published 2025):
Structures can show the parent of a compound that is named as a salt. Blank lines part the entries; values can stand above or below the compound they belong to.

Experiments:
[1] = test system: Jurkat T cells; test: Cytokine secretion in T cells (ELISA); format: cell-based, human; conditions: PHA/PMA induction, culture medium
[2] = test system: THP-1 derived macrophages; test: Cytokine secretion in macrophages (ELISA); format: cell-based, human; conditions: IFN-γ/LPS induction, culture medium
[3] = test system: BLM-induced pulmonary fibrosis; test: Bleomycin-induced lung fibrosis mouse model; format: in vivo; conditions: 14 days, Nintedanib 60 mg/kg/day, WRG-28 5 mg/kg/day, Av 5 mg/kg/day
Source text: A Bleomycin (BLM)-induced lung fibrosis mouse model was used, and the timelines of operation and drug delivery are depicted in FIG. 11A. […] The hydroxyproline content, serving as a marker of collagen deposition, was extracted from the right lobe and analyzed; the results are shown in FIG. 11C. FIG. 11D depicts histological analysis derived from the left lobe, quantifying the fibrotic area through staining with Masson's Trichrome and Picrosirius red, respectively.
8-to-10-week-old male WT (C57BL/6) mice received intratracheal instillation of bleomycin (bleocin; Nippon Kayaku) at the dose of 3 mg/kg diluted in PBS or PBS only (sham). To study fibrosis, lung samples were collected on day 21 for further analysis.
Lung function was assessed using the flexi Vent system (Scireq, Montreal, QC, Canada). Mice were tracheostomized and ventilated at a rate of 150 breaths/min, tidal volume of 10 ml/kg, and a positive end-expiratory pressure (PEEP) of 2-3 cmH2O. A deep inflation perturbation was used to estimate the inspiratory capacity (IC). Pressure-Volume loops were generated by constant increasing pressure, followed by regular decreasing pressure. Other lung function parameters like resistance, compliance, and elastance were measured by using SnapShot-150.
Levels of hydroxyproline in lung tissues were measured using the Hydroxyproline Colorimetric Assay kit (BioVision, Milpitas, CA, USA). Briefly, 10 mg of frozen right middle lobes homogenized in 100 μL of hydrochloric acid (HCl, 12 N), and hydrolyzed at 120° C. for 3 h. Then, 10 μL of individual samples were used to quantify the absorbance at 560 nm. Hydroxyproline content was presented in μg per lobe.
Mouse left lungs were fixed overnight in 4% paraformaldehyde (PFA), embedded in paraffin, and sectioned in 5 μm thickness for picrosirius red (Abcam, Cambridge, UK) and Masson's trichrome staining (Sigma Aldrich, MO, USA). Measurement of fibrotic area was quantified using ImageJ software (NIH, http://rsbweb.nih.gov/ij/).
The efficacy of WRG-28 and Av in treating pulmonary fibrosis was examined in vivo using a BLM-induced pulmonary fibrosis mouse model for evaluation. 50 μL of Bleomycin (BLM, 3 mg/kg) or PBS were introduced by intratracheal instillation on day 0 to induce fibrosis or serve as the control group, respectively. This was followed by the administration of various compounds for 14 days (Nintedanib: 60 mg/kg/day, WRG-28:5 mg/kg/day, Av: 5 mg/kg/day). Lung function evaluation was conducted on day 21 (FIG. 11A). Nintedanib, an FDA-approved drug for idiopathic pulmonary fibrosis (IPF) treatment, was used as the positive control. The results of the lung function evaluation are depicted in FIG. 11B. […] The degree of these changes can be reversed through treatment with Nintedanib, WRG-28 or Av. […] Histological analysis was conducted through staining techniques to quantify the fibrotic area.

[4] = molecular target: T1, DDR2 (Homo sapiens, UniProt Q16832); test: DDR2 activation (anti-phosphotyrosine Western blot) in HEK293T cells overexpressing DDR2, collagen-stimulated; format: cell-based; conditions: 10 μM pretreatment 30 minutes, then 50 μg/mL type I collagen 12 hours
T1 construct: expressed in transfected cells; host or cells: HEK293T
T1 sequence (Q16832 22-855): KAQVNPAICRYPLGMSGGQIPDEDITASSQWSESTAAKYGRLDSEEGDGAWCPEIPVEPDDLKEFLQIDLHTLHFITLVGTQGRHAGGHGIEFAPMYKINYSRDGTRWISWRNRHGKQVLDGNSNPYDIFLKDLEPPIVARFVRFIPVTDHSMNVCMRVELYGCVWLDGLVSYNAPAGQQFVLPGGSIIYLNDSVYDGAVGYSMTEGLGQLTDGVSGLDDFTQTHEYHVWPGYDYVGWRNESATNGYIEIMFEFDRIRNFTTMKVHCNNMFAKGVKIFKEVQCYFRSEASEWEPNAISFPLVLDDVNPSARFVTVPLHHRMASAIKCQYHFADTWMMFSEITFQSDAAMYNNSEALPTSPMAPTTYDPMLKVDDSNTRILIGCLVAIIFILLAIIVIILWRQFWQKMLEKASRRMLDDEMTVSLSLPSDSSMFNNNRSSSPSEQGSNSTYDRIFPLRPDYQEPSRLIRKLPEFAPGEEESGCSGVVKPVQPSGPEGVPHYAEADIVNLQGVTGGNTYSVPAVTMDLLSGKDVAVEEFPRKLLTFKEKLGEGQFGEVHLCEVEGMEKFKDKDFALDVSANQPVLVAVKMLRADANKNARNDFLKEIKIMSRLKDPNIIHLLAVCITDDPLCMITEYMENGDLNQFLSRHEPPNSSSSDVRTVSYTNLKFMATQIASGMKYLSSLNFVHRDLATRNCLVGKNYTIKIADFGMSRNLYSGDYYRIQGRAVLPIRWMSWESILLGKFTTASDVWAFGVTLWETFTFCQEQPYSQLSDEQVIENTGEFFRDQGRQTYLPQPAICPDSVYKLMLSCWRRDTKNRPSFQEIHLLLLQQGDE
Description: FIG. 1A, FIG. 1B, FIG. 1C, FIG. 1D, FIG. 1E, FIG. 1F, FIG. 1G, FIG. 1H, FIG. 1I, FIG. 1J, FIG. 1K, FIG. 1L, FIG. 1M, and FIG. 1N show WRG-28 and atovaquone (Av) suppress the activation of DDR2 and calcium release-activated calcium (CRAC) channel. FIG. 1A indicates HEK293T cells were transiently overexpressed with DDR2 and then pretreated with different compounds (10 μM), including WRG-28, Av, donepezil hydrochloride (Dh), terazosin hydrochloride (Th), verapamil and flecainide for 30 minutes. Verapamil and flecainide were used as negative control here. After that, cells were treated with 50 μg/mL type I collagen for 12 hours. Cell lysates were harvested and subjected to Western blot analysis with antibodies against phosphotyrosine antibody (clone 4G10), DDR2, and β-actin. […] CRAC channel activity was evaluated by applying 1 μM thapsigargin (Thap.) in a calcium-free solution to deplete the endoplasmic reticulum calcium store, followed by the reintroduction of 2 mM Ca^2+ in an external solution. […] Further analyses are presented in FIG. 1I and FIG. 1J, where the second peak of each wave and rate of entry were analyzed. […] The Orai1 and Stim1 puncta in HEK293T cells overexpressed with CFP-Orai1/Stim1-mCherry were assessed. […]
Cell lysates were harvested in RIPA buffer (150 mM NaCl, 1 mM EGTA, 50 mM Tris pH 7.4, 10% glycerol, 1% Triton X-100, 1% sodium deoxycholate, 0.1% SDS, and protease inhibitor cocktail) and collected from culture dish with cell scrapers. […] The protein expression levels were assessed by specific primary antibodies, including antibodies against phosphotyrosine (clone 4G10; Millipore), DDR2 (R&D), α-SMA (Sigma), Collagen 1a1 (Boster), E-cadherin (BD Biosciences), SGLT2 (Proteintech), NHE1 (Novus) and β-actin (Clone C4, Millipore), followed by incubating with secondary antibodies conjugated with HRP and detected by ECL kit (Thermo Scientific).
To examine the impact of these compounds on DDR2 activation, HEK293T cells overexpressing DDR2 were pretreated with various compounds. […] The activation of DDR2 was evaluated using an anti-phosphotyrosine antibody. […]

[5] = molecular target: CRAC channel (Homo sapiens, UniProt Q96D31); test: CRAC channel activity / SOCE by Fura 2-AM cytosolic Ca2+ imaging in HEK293T cells; format: cell-based; design: endogenous in cells; host or cells: HEK293T; conditions: 10 μM, 1 μM thapsigargin then 2 mM Ca2+
Chain of CRAC channel (Q96D31 whole entry): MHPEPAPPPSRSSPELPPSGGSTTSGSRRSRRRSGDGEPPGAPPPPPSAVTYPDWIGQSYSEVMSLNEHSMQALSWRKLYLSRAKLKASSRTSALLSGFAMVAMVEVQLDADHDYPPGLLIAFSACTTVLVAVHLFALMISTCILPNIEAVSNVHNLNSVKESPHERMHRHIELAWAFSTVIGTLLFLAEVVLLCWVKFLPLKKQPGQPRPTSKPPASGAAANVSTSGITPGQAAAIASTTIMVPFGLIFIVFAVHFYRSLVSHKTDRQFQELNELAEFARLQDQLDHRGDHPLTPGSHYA
Description: CRAC channel activity was evaluated by applying 1 μM thapsigargin (Thap.) in a calcium-free solution to deplete the endoplasmic reticulum calcium store, followed by the reintroduction of 2 mM Ca^2+ in an external solution. The concentration of cytosolic calcium ions increases as calcium flows through the CRAC channel, leading to the second peak in cytosolic calcium waves. […] Each bar represents the mean value derived from 47 to 103 cells. […] Each bar represents the mean value derived from 83 to 176 cells. […] Further analyses are presented in FIG. 1I and FIG. 1J, where the second peak of each wave and rate of entry were analyzed. Each bar represents the mean value derived from 72 to 108 cells. […] In all the graphs, each bar represents mean±SEM and *, **, and *** denote p-value <0.05, 0.01, and 0.001, respectively.
Cells were then washed and incubated with the same solution in addition to the supplement of Fura 2-AM for another 15 minutes for fully de-esterification. […] 1 μM thapsigargin was added to induce endoplasmic reticulum (ER) calcium store depletion followed by applying 2 mM calcium solution to assess the activation of calcium release-activated calcium (CRAC) channels. Cells were alternately excited at 340 and 380 nm, and images were acquired every 2 seconds. […] All the images were analyzed by using IGOR Pro software. […]

SMILES: Cc1cccc(F)c1C(=O)Nc1cnc(-c2cc3c(cc2Cl)OC(F)(F)O3)cn1 [CM-4620]
secretion of IL-2 in T cells [1]: significantly reduced | secretion of IL-2 in macrophages [2]: significantly reduced | secretion of IL-6 in macrophages [2]: significantly reduced | secretion of TNF-β in macrophages [2]: significantly reduced

SMILES: COC(=O)c1ccc2c(c1)NC(=O)/C2=C(\Nc1ccc(N(C)C(=O)CN2CCN(C)CC2)cc1)c1ccccc1 [Nintedanib]
BLM-induced changes in lung function (capacity, compliance, resistance, elastance) ([3]; day 21): reversed | fibrotic area (Masson's trichrome and Picrosirius Red staining) ([3]; left lobe): effectively reduces | hydroxyproline content (degree of fibrosis) ([3]; right lobe): inhibits the progression of fibrosis

activation of DDR2 (phosphotyrosine) [4]: significantly reduced
SMILES: COc1cc2nc(N3CCN(C(=O)C4CCCO4)CC3)nc(N)c2cc1OC (stereo not shown) [Th, terazosin hydrochloride]

activation of DDR2 (phosphotyrosine) [4]: significantly reduced | second peak and rate of SOCE [5]: did not show significant effects
SMILES: COc1cc2c(cc1OC)C(=O)C(CC1CCN(Cc3ccccc3)CC1)C2 (stereo not shown) [Dh, donepezil hydrochloride]
